Assay results: patent US4579840A, “Method of blocking immune complex binding to immunoglobulin Fc receptors” (Immunetech Pharmaceuticals, priority 1983, dated 1986)
Ends that are not written are not given here. Peptide text beside a SMILES is read from it. * marks the point of attachment. Cbz = O=C(OCc1ccccc1)*

How the values were obtained:
[1] = target: T1, MONOCYTE/MACROPHAGE Fc Receptor IgE (Homo sapiens, UniProt P06734); test: Rosette inhibition assay, monocyte/macrophage IgE Fc receptor; assay type: binding; details: human monocytes or U937; relative to intact monomeric myeloma IgE at equal concentration; NS = not significantly different from 0
T1 construct: the cells expressing surface Fc receptors formed rosettes; endogenous in cells; host or cells: fresh human monocytes or U937
T1 sequence (P06734 1-321): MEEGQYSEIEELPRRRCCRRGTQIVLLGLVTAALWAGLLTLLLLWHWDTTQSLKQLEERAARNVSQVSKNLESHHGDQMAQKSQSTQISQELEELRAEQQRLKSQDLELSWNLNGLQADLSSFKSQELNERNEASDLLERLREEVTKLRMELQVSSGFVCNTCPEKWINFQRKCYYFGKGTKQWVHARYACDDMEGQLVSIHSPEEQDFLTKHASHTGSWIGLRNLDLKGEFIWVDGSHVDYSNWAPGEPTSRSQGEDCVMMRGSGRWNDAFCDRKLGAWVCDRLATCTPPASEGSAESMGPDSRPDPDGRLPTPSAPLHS
Procedure: (§1) The Fc receptor blocking activity of the subject peptides was assessed using well established techniques and procedures. In particular, a rosette assay was employed which uses either monomeric, chemically or heat aggregated human IgG or IgE obtained from human myeloma sera. (Gonzalez-Molina, et al., J. Clin. Invest., 59, 616 (1977); Spiegelberg, et al. in Immunoassays: Clinical Laboratory Techniques for the 1980's (Alan R. Liss: New York, 1980), pp. 287-300). The IgG or IgE is then adsorbed to ox-erythrocytes which has been previously treated with trypsin and pyruvic aldehyde. Fresh human cell PMNs, monocytes and basophils from a patient with basophilic chronic myelogenous leukemia or human cell lines (RPMI-8866, and Daudi for lymphocyte Fc receptors and U937 for monocyte/macrophage Fc receptors) were then incubated in the presence or absence of inhibitors (monomeric IgG or IgE or peptides) at equal concentrations for fifteen minutes before addition of the indicator oxerythrocytes. In the absence of inhibitors, the cells expressing surface Fc receptors formed rosettes, clusters of three or more indicator erythrocytes that bound to the cells by virtue of exposed Fc regions on the erythrocyte surface. Addition of inhibitor myeloma proteins or inhibitor peptides produced a reproducable reduction of rosette formation, […], phosphate buffered isotonic saline, was used alone as control and then multiplying the calculated quotient by 100.
(§2) Table 1 presents the inhibition observed by representative peptide inhibitors calculated as a percentage of the inhibition observed with intact, monomeric myeloma proteins. Thus, 50 percent inhibition implys that the peptide was 50% as inhibitory as the intact myeloma protein to which it was compared.

[2] = target: T2, LYMPHOCYTE Fc Receptor IgG (Homo sapiens, UniProt P31994); test: Rosette inhibition assay, lymphocyte IgG Fc receptor; assay type: binding; details: RPMI-8866 and Daudi cell lines; relative to intact monomeric myeloma IgG at equal concentration; NS = not significantly different from 0
T2 construct: the cells expressing surface Fc receptors formed rosettes; endogenous in cells; host or cells: RPMI-8866 / Daudi
T2 sequence (P31994 43-310): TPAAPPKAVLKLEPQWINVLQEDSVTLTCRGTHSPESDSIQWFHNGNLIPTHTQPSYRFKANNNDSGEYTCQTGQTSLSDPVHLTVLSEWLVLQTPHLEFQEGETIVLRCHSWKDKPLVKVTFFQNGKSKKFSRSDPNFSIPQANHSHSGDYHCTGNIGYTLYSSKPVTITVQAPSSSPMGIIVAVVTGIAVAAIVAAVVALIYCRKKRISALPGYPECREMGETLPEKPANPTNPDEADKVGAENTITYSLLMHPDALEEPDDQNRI
Procedure: as §1, §2

[3] = target: T3, BASOPHIL Fc Receptor IgE (Homo sapiens, UniProt P12319); test: Rosette inhibition assay, basophil IgE Fc receptor; assay type: binding; details: basophils from a patient with basophilic chronic myelogenous leukemia; relative to monomeric myeloma IgE; NS = not significantly different from 0
T3 construct: the cells expressing surface Fc receptors formed rosettes; endogenous in cells; host or cells: basophils of a patient with basophilic chronic myelogenous leukemia
T3 sequence (P12319 26-257): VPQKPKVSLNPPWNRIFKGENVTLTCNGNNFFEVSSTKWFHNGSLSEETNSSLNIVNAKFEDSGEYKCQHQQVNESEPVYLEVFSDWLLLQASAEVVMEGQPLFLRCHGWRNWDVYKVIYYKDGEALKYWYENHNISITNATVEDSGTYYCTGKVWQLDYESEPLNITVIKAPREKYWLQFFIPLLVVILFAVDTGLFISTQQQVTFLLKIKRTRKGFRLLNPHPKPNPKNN
T3 sequence (Q01362 1-244 partner): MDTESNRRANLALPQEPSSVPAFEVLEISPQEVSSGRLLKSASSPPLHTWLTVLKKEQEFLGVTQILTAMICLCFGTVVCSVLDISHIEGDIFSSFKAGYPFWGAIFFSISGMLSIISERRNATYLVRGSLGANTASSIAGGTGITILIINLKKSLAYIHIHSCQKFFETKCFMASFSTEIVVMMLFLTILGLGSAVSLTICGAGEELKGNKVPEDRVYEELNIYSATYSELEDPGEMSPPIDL
T3 sequence (P30273 19-86 partner): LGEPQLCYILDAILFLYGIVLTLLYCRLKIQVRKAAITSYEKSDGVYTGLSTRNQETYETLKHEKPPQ
Procedure: as §1, §2

[4] = target: T4, LYMPHOCYTE Fc Receptor IgE (Homo sapiens, UniProt P06734); test: Rosette inhibition assay, lymphocyte IgE Fc receptor; assay type: binding; details: RPMI-8866 and Daudi cell lines; relative to intact monomeric myeloma IgE at equal concentration; NS = not significantly different from 0
T4 construct: the cells expressing surface Fc receptors formed rosettes; endogenous in cells; host or cells: RPMI-8866 / Daudi
T4 sequence (P06734 1-321): T1 sequence (P06734 1-321)
Procedure: as §1, §2

[5] = target: C1 (Homo sapiens, UniProt P02745+P02746+P02747); details: Prystowsky et al. 1981, Lukas et al. 1981; cited from earlier work
C1, sequence (P02745 23-245): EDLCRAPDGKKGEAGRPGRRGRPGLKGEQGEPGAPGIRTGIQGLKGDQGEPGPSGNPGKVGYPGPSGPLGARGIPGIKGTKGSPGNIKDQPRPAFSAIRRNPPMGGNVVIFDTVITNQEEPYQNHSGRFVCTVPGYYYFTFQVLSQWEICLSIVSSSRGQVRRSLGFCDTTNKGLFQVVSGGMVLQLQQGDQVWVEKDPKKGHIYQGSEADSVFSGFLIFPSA
C1, sequence (P02746 28-253): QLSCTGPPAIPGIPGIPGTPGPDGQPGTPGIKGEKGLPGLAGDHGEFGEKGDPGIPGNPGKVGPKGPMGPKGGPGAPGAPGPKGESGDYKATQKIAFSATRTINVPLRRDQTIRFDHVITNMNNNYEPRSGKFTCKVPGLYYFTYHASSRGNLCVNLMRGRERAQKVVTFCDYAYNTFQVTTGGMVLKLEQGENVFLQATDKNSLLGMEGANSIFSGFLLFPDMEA
C1, sequence (P02747 29-245): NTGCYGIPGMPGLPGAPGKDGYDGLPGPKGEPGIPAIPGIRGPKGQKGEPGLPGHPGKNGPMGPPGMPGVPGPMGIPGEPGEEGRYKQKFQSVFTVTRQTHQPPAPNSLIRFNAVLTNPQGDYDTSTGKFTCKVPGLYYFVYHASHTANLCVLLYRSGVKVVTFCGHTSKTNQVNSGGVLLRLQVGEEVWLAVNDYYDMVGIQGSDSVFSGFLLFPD
C1, sequence (P00736 18-705 partner): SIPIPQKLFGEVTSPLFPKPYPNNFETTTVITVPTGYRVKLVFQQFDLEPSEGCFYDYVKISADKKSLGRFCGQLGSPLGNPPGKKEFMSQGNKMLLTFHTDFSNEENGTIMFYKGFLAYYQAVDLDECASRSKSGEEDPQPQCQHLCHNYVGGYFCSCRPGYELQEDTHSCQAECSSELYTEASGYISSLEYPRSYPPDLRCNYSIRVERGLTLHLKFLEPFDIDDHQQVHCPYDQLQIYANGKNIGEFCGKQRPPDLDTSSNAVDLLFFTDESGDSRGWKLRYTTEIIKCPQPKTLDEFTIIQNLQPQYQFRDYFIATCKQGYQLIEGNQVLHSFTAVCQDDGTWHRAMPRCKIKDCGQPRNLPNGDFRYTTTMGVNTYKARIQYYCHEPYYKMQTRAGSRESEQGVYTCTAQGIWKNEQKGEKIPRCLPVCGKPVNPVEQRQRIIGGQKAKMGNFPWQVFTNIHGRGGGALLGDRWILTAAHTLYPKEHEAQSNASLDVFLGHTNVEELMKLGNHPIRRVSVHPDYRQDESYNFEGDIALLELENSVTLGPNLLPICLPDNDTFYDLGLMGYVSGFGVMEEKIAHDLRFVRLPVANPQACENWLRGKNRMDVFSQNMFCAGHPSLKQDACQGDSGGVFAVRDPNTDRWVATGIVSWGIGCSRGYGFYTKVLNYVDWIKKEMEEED
C1, sequence (P09871 16-688 partner): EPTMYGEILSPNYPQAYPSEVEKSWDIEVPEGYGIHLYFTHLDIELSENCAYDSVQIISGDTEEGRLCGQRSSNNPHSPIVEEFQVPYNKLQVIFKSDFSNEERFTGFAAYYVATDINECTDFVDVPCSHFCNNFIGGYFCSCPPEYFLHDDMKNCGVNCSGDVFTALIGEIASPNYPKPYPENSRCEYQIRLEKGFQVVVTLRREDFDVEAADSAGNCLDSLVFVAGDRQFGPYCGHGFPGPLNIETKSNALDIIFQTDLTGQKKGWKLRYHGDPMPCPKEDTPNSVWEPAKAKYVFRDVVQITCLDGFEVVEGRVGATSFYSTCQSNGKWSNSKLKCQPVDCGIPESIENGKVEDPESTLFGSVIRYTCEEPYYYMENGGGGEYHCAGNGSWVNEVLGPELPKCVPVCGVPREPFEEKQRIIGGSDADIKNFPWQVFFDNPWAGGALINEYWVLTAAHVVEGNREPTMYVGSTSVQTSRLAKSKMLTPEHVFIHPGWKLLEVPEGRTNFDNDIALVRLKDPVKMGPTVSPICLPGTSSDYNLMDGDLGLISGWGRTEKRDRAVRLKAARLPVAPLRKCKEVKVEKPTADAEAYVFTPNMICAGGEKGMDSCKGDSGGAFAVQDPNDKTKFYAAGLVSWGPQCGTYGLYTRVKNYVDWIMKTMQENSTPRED

[6] = target: C1q Fc receptor (Homo sapiens, UniProt P02745+P02746+P02747); details: peptides adsorbed to erythrocytes; Johnson and Thames 1975, Boackle et al. 1979; cited from earlier work
C1q Fc receptor, sequence (P02745 23-245): as the sequence (P02745 23-245) above
C1q Fc receptor, sequence (P02746 28-253): as the sequence (P02746 28-253) above
C1q Fc receptor, sequence (P02747 29-245): as the sequence (P02747 29-245) above
C1q Fc receptor, sequence (P00736 18-705 partner): as the sequence (P00736 18-705 partner) above
C1q Fc receptor, sequence (P09871 16-688 partner): as the sequence (P09871 16-688 partner) above

Compound	Rosette inhibition expressed as percent inhibition by monomeric IgE; monocyte/macrophage Fc receptor, IgE [1] [%]	Rosette inhibition expressed as percent inhibition by monomeric IgG; lymphocyte Fc receptor, IgG [2] [%]	Rosette inhibition expressed as percent inhibition by monomeric IgE; basophil Fc receptor, IgE [3]	complement activating ability (C1q-mediated cell lysis) [6]	further results
CC(=O)N[C@@H](CCC(N)=O)C(=O)N1CCC[C@H]1C(=O)N[C@@H](CCC(=O)O)C(=O)N[C@@H](CC(N)=O)C(=O)O [Ac--Gln--Pro--Glu--Asn, Ac-Gln-Pro-Glu-Asn] (Ac-QPEN-OH)	55	94	89%		
N=C(N)NCCC[C@H](NC(=O)[C@H](CO)NC(=O)[C@H](CCCCN)NC(=O)[C@@H](N)CC(=O)O)C(=O)O [Asp--Lys--Ser--Arg, Asp-Lys-Ser-Arg] (H-DKSR-OH)	38	86	89%		Rosette inhibition expressed as percent inhibition by monomeric IgE; lymphocyte Fc receptor, IgE [4]: 23%
NCCCC[C@H](NC(=O)[C@H](CO)NC(=O)[C@H](CCCCN)NC(=O)[C@@H](N)CC(=O)O)C(=O)O [Asp--Lys--Ser--Lys] (H-DKSK-OH)		16	94%		
NCCCC[C@H](NC(=O)[C@H](CCC(N)=O)NC(=O)[C@@H](N)CCC(=O)O)C(=O)N[C@@H](CC(=O)O)C(=O)O [Glu--Gln--Lys--Asp] (H-EQKD-OH)			106%		
C[C@H](NC(=O)[C@H](CCCNC(=N)N)NC(=O)[C@@H](N)[C@@H](C)O)C(=O)N[C@@H](CCC(=O)O)C(=O)O [Thr--Arg--Ala--Glu, Thr-Arg-Ala-Glu] (H-TRAE-OH)	20	49	41%		
Ac-Phe-Asn-Trp-Tyr-Val (Ac-FNWYV)					inhibition of C1-mediated hemolysis [5]: less active
DKSRAQQGN [Asp--Lys--Ser--Arg--Ala--Gln--Gln--Gly--Asn]			74%		
DSNPR [Asp--Ser--Asn--Pro--Arg]	48		37%		
EWYERG				less active	
FNWYVDGVQVHNAKTK					inhibition of C1-mediated hemolysis [5]: less active
GVQVHNAKTK					inhibition of C1-mediated hemolysis [5]: approximately as active as inhibitors as intact monomeric IgG
KADWYVDG				about as effective in activating C1q-mediated cell lysis as immune complexes formed by heat aggregated IgG	
KFDAYVDG				less active	
KFDWAVDG				less active	
KFEWYVEGVE				less active	
KYDWYVDG				less active	
PDARHS [Pro--Asp--Ala--Arg--His--Ser, Pro-Asp-Ala-Arg-His-Ser]	87	95	101%		Rosette inhibition expressed as percent inhibition by monomeric IgE; lymphocyte Fc receptor, IgE [4]: 98%

Compound	Rosette inhibition expressed as percent inhibition by monomeric IgE; monocyte/macrophage Fc receptor, IgE [1] [%]	Rosette inhibition expressed as percent inhibition by monomeric IgG; lymphocyte Fc receptor, IgG [2] [%]	Rosette inhibition expressed as percent inhibition by monomeric IgE; basophil Fc receptor, IgE [3]	complement activating ability (C1q-mediated cell lysis) [6]	further results
PDARHSTTQPR [Pro--Asp--Ala--Arg--His--Ser--Thr--Thr--Gln--Pro--Arg]	103	92	~ 130%		Rosette inhibition expressed as percent inhibition by monomeric IgE; lymphocyte Fc receptor, IgE [4]: 100%
RSTTKTSGPR	87	100	110%		Rosette inhibition expressed as percent inhibition by monomeric IgE; lymphocyte Fc receptor, IgE [4]: 87%
SVMHEALHNHYTQK [Ser--Val--Met--His--Glu--Ala--Leu--His--Asn--His--Tyr--Thr--Gln--Lys]	28		74%		
TISKAKGQPR	87	84	133%		Rosette inhibition expressed as percent inhibition by monomeric IgE; lymphocyte Fc receptor, IgE [4]: 106%
TRAEAEQKD [Thr--Arg--Ala--Glu--Ala--Glu--Gln--Lys--Asp]	21		108%		
TTQPR [Thr--Thr--Gln--Pro--Arg]	58	36	80%		
TVLHQNWLDGK	95	34	100%		Rosette inhibition expressed as percent inhibition by monomeric IgE; lymphocyte Fc receptor, IgE [4]: 95%
Trp-Leu				inactive	
TrpTyrValAspGly (WYVDG; printed: TrpTyrValAspGly)				less active	
Tyr-Glu-Ala-Gly (YEAG; printed: Tyr-Glu-Ala-Gly)				inactive	
TyrGluArgGly (YERG; printed: TyrGluArgGly)				less active	
VHEAKAKPGR				less active	
YDYYVDG				less active	
YSKLTVDKSR [reference compound]	33	29	89%		
YVEWGERG				less active	
ZAsnTrpTyrVal (Cbz-NWYV)				less active	
ZValGluTrpGly (Cbz-VEWG)				less active	
